Laboratory results published in patent US10457707B2, “Substituted urea depsipeptide analogs as activators of the CLPP endopeptidase” (priority 2015, dated 2019).
Converted amounts (≈) assume the structure as drawn. *1 amine or outer side, *2 acyl side, *3 side chain or, on linkers, in order; H or OH if unused. Where a SMILES comes first, the peptide text is derived from it. Bridges are numbered along the chain shown (N, C = ends). [ ]: non-standard residue; d: D form. The star is where a group is joined. ξ: configuration not given here. Phe(3,5-F2) = N[C@@H](Cc1cc(F)cc(F)c1)C(=O)O; Pro(4S-Me) = C[C@@H]1CN[C@H](C(=O)O)C1; NHPh(4-CF3) = FC(F)(F)c1ccc(N*)cc1; ξPro(4R-Me) = C[C@H]1CNC(C(=O)O)C1; NH(4-Me-phenyl) = Cc1ccc(N*)cc1; aThr = C[C@H](O)[C@H](N)C(=O)O; Pip = O=C(O)[C@@H]1CCCCN1; NMeA = CN[C@@H](C)C(=O)O; ξPip = O=C(O)C1CCCCN1; CO = O=C([*:1])[*:2]; ξP = O=C(O)C1CCCN1

Columns and labels:
Type in all cases: cell-based
[1] = system: Vero (kidney epithelial cells; ATCC CCL-81); assay: Cytotoxicity assay (CellTiter-Glo cell viability, 72 hours); settings: Vero cells, 72 hours, growth inhibition; read-out: Cytotoxicity IC50
Summary of the method: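 Vero cells, 5000/well, grown overnight at 37° C, 5% CO2 in DMEM with 10% FBS, then exposed to serial compound dilutions or DMSO for 72 hours. Viability read by CellTiter-Glo luminescence. IC50 from duplicate wells, reported as range over two independent experiments.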

[2] = system: Streptococcus pyogenes, ATCC 700294; assay: Minimal inhibitory concentration assay (microbroth dilution); settings: Streptococcus pyogenes, ATCC700294, read-out: Minimal Inhibitory Concentrations S. pyogenes ATCC 700294
Summary of the method: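 CLSI broth microdilution: two-fold serial compound dilutions in appropriate broth, inoculated and incubated aerobically overnight at 37° C. MIC read visually as lowest concentration preventing bacterial growth.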

[3] = system: Streptococcus pneumoniae, R6; assay: Minimal inhibitory concentration assay; settings: read-out: Minimal Inhibitory Concentrations S. pneumoniae R6
Summary of the method: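 Microbroth dilution with two-fold serial compound dilutions in broth, incubated aerobically overnight at 37° C. MIC taken as the lowest concentration preventing bacterial growth.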

[4] = system: Staphylococcus aureus, USA 300; assay: Minimal inhibitory concentration assay; settings: USA300, read-out: Minimal Inhibitory Concentrations S. aureus USA 300
Summary of the method: (§1)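 CLSI broth microdilution; 2-fold series from 200 μM final; inoculum ~10^5 cfu/mL; 37 °C, aerobic, overnight; visual MIC = lowest conc. without growth. The ClpP-inactivated USA 300 strain is the comparator for ClpP-dependent killing.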

[5] = system: Staphylococcus aureus, USA 300 wherein ClpP is inactivated; assay: Minimal inhibitory concentration assay
Summary of the method: as §1

[6] = system: Staphylococcus aureus, NRS70; assay: Minimal inhibitory concentration assay (microbroth dilution); settings: Staphylococcus aureus, NRS70, read-out: Minimal Inhibitory Concentrations S. aureus NRS70
Summary of the method: as §1

[7] = system: Staphylococcus aureus, ATCC 29213; assay: as above; settings: ATCC29213, read-out: Minimal Inhibitory Concentrations S. aureus ATCC 29213
Summary of the method: as §1

[8] = system: Bacillus subtilis, ATCC 23857; assay: as above; settings: Bacillus subtilis, ATCC23857, read-out: Minimal Inhibitory Concentrations B. subtilis ATCC 23857
Summary of the method: as §1

[9] = system: Enterococcus faecalis, ATCC 33186; assay: as above; settings: Enterococcus faecalis, ATCC33186, read-out: Minimal Inhibitory Concentrations E. faecalis ATCC 33186
Summary of the method: as §1

SMILES	IC50 [1] [µM]	MIC [2] [µM]	MIC [3] [µM]	MIC [4] [µM]	Minimal Inhibitory Concentrations S. aureus USA 300 ΔClpP [5] [µM]	MIC [6] [µM]	MIC [7] [µM]	MIC [8] [µM]	MIC [9] [µM]
C[C@@H]1NC(=O)[C@@H]2CCCCN2C(=O)[C@@H]2CCCN2C(=O)[C@@H](NC(=O)[C@H](Cc2cc(F)cc(F)c2)NC(=O)Nc2ccc(C(F)(F)F)cc2)[C@H](C)OC(=O)[C@@H]2CCCN2C1=O [Compound 16, (S)-3-(3,5-difluorophenyl)-N-((6S,8aS,14aS,20S,21S,23aS)-6,21-dimethyl-5,8,14,19,23-pentaoxooctadecahydro-1H,5H,14H,19H-pyrido[2,1-i]dipyrrolo[2,1-c:2′,1′-l][1]oxa[4,7,10,13]tetraazacyclohexadecin-20-yl)-2-(3-(4-(trifluoromethyl)phenyl)ureido)propanamide] ({NHPh(4-CF3)-CO}-[Phe(3,5-F2)][aThr]P[Pip]AP; ester 2-C)	74.3 ± 9	1.5 (≈ 1.27 µg/mL)	0.8 (≈ 0.678 µg/mL)	0.8 (≈ 0.678 µg/mL)	3.1	0.8 (≈ 0.678 µg/mL)	0.4 (≈ 0.339 µg/mL)	0.4 (≈ 0.339 µg/mL)	< 0.1
Cc1ccc(NC(=O)N[C@@H](Cc2cc(F)cc(F)c2)C(=O)N[C@@H]2C(=O)N3CCCC3C(=O)N(C)[C@@H](C)C(=O)N[C@@H](C)C(=O)N3CCCC3C(=O)O[C@H]2C)cc1 (stereo partly drawn) [Compound 25, (2S)-3-(3,5-difluorophenyl)-N-((6S,9S,11aS,17S,18S)-6,9,10,18-tetramethyl-5,8,11,16,20-pentaoxohexadecahydro-1H,5H,16H-dipyrrolo[2,1-c:2′,1′-l][1]oxa[4,7,10,13]tetraazacyclohexadecin-17-yl)-2-(3-(p-tolyl)ureido)propanamide] ({NH(4-Me-phenyl)-CO}-[Phe(3,5-F2)][aThr][ξP][NMeA]A[ξP]; ester 2-C)	10.8 ± 1	1 (≈ 0.768 µg/mL)	0.254 (≈ 0.195 µg/mL)	0.78 (≈ 0.599 µg/mL)	200	0.78 (≈ 0.599 µg/mL)	0.78 (≈ 0.599 µg/mL)	0.02 (≈ 0.0154 µg/mL)	
C[C@H]1C[C@H]2C(=O)O[C@@H](C)[C@H](NC(=O)[C@H](Cc3cc(F)cc(F)c3)NC(=O)Nc3ccc(C(F)(F)F)cc3)C(=O)N3CCC[C@H]3C(=O)N3CCCC[C@H]3C(=O)N[C@@H](C)C(=O)N2C1 [Compound 19, (S)-3-(3,5-difluorophenyl)-2-(3-(4-(trifluoromethyl)phenyl)ureido)-N-((2R,6S,8aS,14aS,20S,21S,23aS)-2,6,21-trimethyl-5,8,14,19,23-pentaoxooctadecahydro-1H,5H,14H,19H-pyrido[2,1-i]dipyrrolo[2,1-c:2′,1′-l][1]oxa[4,7,10,13]tetraazacyclohexadecin-20-yl)propanamide] ({NHPh(4-CF3)-CO}-[Phe(3,5-F2)][aThr]P[Pip]A[Pro(4S-Me)]; ester 2-C)	36.8 ± 4.1	0.4 (≈ 0.345 µg/mL)	0.8 (≈ 0.689 µg/mL)	0.1 (≈ 0.0862 µg/mL)	6.2	0.1 (≈ 0.0862 µg/mL)	0.1 (≈ 0.0862 µg/mL)	< 0.1	0.39 (≈ 0.336 µg/mL)
Cc1ccc(NC(=O)N[C@@H](Cc2ccccc2)C(=O)N[C@H]2COC(=O)[C@@H]3C[C@@H](C)CN3C(=O)[C@H](C)NC(=O)[C@@H]3CCCCN3C(=O)[C@@H]3CCCN3C2=O)cc1 [Compound 23, (S)—N-((2R,6S,8aS,14aS,20S,23aS)-2,6-dimethyl-5,8,14,19,23-pentaoxooctadecahydro-1H,5H,14H,19H-pyrido[2,1-i]dipyrrolo[2,1-c:2′,1′-l][1]oxa[4,7,10,13]tetraazacyclohexadecin-20-yl)-3-phenyl-2-(3-(p-tolyl)ureido)propanamide]	74 ± 7.7	< 0.2	< 0.2	0.1 (≈ 0.0758 µg/mL)		0.4 (≈ 0.303 µg/mL)	0.4 (≈ 0.303 µg/mL)	< 0.2	< 0.2
Cc1ccc(NC(=O)N[C@@H](Cc2cc(F)cc(F)c2)C(=O)N[C@@H]2C(=O)N3CCCC3C(=O)N3CCCCC3C(=O)N[C@@H](C)C(=O)N3C[C@H](C)CC3C(=O)O[C@H]2C)cc1 (stereo partly drawn) [Compound 39, (S)-3-(3,5-difluorophenyl)-2-(3-(p-tolyl)ureido)-N-((2R,6S,8aS,14aS,20S,21S,23aS)-2,6,21-trimethyl-5,8,14,19,23-pentaoxooctadecahydro-1H,5H,14H,19H-pyrido[2,1-i]dipyrrolo[2,1-c:2′,1′-l][1]oxa[4,7,10,13]tetraazacyclohexadecin-20-yl)propanamide] ({NH(4-Me-phenyl)-CO}-[Phe(3,5-F2)][aThr][ξP][ξPip]A[ξPro(4R-Me)]; ester 2-C)	40 ± 4.1	0.2 (≈ 0.162 µg/mL)	0.05 (≈ 0.0404 µg/mL)	0.05 (≈ 0.0404 µg/mL)	100	0.05 (≈ 0.0404 µg/mL)	0.05 (≈ 0.0404 µg/mL)	0.02 (≈ 0.0162 µg/mL)	
